These results are taken from US12673975B2, “Cyclic peptide, cell scaffold material, cell separating material, and medium” (FUJIFILM Corporation, priority 2019, dated 2026).

Where two headings read alike, the source gives them in different places. Starred links: 1 amine or outer side, 2 acyl side, 3 side chain; linkers in the order of their positions; H or OH if unused. Positions of bridges follow the written chain, without caps; N, C: chain ends. Non-standard residues stand in square brackets, D forms with d. Residues, ends and D or L forms follow the SMILES beside them. hCys = N[C@@H](CCS)C(=O)O; Dab = NCC[C@H](N)C(=O)O; Dap = NC[C@H](N)C(=O)O; X1 = O=C(C[*:2])[*:1]; X2 = O=C(C[*:1])[*:2]

Series [1] can be described thus: Evaluation of molecule stability (alkali treatment, residual rate by LC/MS). It counts as physicochemical. Particulars: for Stability (molecule stability, residual rate of the cyclic peptide rank): alkali treatment, residual rate by LC/MS; for Performance evaluation: Stability (residual rate of cyclic peptide after alkali treatment): 500 μM peptide aqueous solution plus equivalent of 1 M sodium hydroxide, 15° C., 3 hours, LC/MS peak area. An outline of the steps:
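500 μM aqueous cyclic peptide mixed with an equal volume of 1 M NaOH and held 3 h at 15 °C. Residual rate is total LC/MS peak area after treatment relative to untreated (100%), using a C18 column, pH 3 ammonium formate/acetonitrile gradient, 45 °C, ESI±.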

Another series has as its target human integrin αvβ5 (Homo sapiens, UniProt P06756+P18084). In words: Evaluation of integrin binding property (surface plasmon resonance, Biacore 3000, immobilized cyclic peptide). An outline of the steps: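 SPR with cyclic peptide amine-coupled via EDC/NHS to a CM5 chip, blank channel as reference. Integrin αvβ5 at 30, 100, 300 and 1,000 nM injected 10 min at 25 °C in HEPES buffer pH 7.4 with 5 mM MgCl2, 30 min buffer flow, EDTA regeneration; Kd from reference-subtracted signals, graded by category.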
In general terms: Surface plasmon resonance follows binding to a sensor surface in real time, without labels.

[2] abbreviates: surface plasmon resonance, immobilized cyclic peptide, human integrin αvβ5, read-out: Binding activity (integrin binding property, dissociation constant rank).
Setting [3] is: SPR, 25° C., HEPES buffer with 5 mM magnesium chloride, integrin 30-1,000 nM, read-out: Performance evaluation: Binding activity (dissociation constant between the cyclic peptide and human integrin αvβ5).

human integrin αvβ5, sequence (P06756 31-1048): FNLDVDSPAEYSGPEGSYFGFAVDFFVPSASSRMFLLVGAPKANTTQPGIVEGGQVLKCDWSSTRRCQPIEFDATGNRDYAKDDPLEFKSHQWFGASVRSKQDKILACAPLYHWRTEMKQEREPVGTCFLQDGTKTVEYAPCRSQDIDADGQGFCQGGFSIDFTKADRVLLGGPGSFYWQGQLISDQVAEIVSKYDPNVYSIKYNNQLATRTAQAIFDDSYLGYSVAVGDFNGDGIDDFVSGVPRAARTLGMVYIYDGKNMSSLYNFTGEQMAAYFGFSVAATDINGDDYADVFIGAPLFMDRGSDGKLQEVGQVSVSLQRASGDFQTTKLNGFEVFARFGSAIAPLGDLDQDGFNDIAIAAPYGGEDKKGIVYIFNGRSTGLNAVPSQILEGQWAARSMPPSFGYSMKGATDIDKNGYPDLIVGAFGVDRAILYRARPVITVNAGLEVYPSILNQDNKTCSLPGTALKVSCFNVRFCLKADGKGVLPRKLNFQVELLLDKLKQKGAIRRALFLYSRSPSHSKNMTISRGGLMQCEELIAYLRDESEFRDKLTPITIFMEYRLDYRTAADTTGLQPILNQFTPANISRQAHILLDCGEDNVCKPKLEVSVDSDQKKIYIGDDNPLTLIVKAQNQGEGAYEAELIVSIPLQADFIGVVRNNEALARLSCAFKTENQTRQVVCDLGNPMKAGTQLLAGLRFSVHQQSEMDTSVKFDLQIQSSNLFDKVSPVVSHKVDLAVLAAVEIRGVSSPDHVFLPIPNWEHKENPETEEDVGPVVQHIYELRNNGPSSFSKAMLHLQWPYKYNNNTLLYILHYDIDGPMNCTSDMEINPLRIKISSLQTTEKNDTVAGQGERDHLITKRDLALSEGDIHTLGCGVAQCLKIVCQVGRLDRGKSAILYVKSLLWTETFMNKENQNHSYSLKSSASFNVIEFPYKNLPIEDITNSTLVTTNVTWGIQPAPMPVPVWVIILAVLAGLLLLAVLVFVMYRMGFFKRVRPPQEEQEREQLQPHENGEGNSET
human integrin αvβ5, sequence (P18084 24-799): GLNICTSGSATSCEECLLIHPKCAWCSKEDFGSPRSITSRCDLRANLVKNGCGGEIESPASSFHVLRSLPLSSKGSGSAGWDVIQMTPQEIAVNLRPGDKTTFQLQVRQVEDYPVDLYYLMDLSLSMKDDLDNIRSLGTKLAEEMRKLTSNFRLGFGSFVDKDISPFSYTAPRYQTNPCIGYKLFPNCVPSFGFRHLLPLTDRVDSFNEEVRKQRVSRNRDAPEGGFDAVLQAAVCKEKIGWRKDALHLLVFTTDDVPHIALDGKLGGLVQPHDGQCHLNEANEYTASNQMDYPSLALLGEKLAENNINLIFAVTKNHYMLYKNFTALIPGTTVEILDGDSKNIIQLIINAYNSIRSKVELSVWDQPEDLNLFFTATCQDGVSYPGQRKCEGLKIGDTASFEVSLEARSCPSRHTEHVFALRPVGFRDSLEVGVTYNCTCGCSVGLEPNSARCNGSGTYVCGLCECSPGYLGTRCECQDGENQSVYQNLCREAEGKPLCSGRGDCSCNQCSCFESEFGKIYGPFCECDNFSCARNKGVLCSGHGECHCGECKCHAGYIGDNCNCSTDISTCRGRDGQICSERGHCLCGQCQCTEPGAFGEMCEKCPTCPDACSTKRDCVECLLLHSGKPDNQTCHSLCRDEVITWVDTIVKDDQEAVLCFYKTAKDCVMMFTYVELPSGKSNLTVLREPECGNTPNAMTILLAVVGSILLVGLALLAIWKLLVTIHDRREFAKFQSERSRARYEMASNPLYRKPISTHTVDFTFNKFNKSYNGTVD

Consider `C[C@@H]1NC(=O)[C@H](Cc2ccccc2)NC(=O)[C@H]([C@@H](C)O)NC(=O)[C@H](CC(=O)O)NC(=O)CNC(=O)[C@H](CCCNC(=N)N)NC(=O)[C@@H]2CCCN2C(=O)[C@H](CCC(=O)O)NC(=O)[C@@H](NC(=O)[C@H](CCCCN)NC(=O)[C@H](CCCCN)NC(=O)[C@@H](N)CCCCN)CCSCC(=O)NCC[C@@H](C(=O)O)NC1=O` [Cyclic peptide 145, KKK-(Hcy)-EPRGDTFA(Dab(acetyl))] (H-KKK[hCys]EPRGDTFA[Dab]-OH; linker 4-13 via X2), for which the “Stability (molecule stability, residual rate of the cyclic peptide rank)” value in series [1] was “A (The residual rate of the cyclic peptide is 70% or more.)”. Moreover, the Kd on human integrin αvβ5 (setting [2]) is less than 50 nM.

On to `CC[C@H](C)[C@@H]1NC(=O)[C@H](C)NC(=O)[C@@H](NC(=O)[C@H](CCCCN)NC(=O)[C@H](CCCCN)NC(=O)[C@@H](N)CCCCN)CCSCC(=O)NCC[C@@H](C(=O)N[C@@H](C)C(=O)O)NC(=O)[C@H](C)NC(=O)[C@H](CCCNC(=N)N)NC(=O)[C@H](Cc2ccccc2)NC(=O)[C@H](CC(N)=O)NC(=O)[C@H](CC(=O)O)NC(=O)CNC(=O)[C@H](CCCNC(=N)N)NC(=O)[C@@H]2CCCN2C1=O` [Cyclic peptide 17, KKK-(Hcy)-AIPRGDNFRA(Dab(acetyl))A] (H-KKK[hCys]AIPRGDNFRA[Dab]A-OH; linker 4-15 via X2), for which, in series [1], the “Performance evaluation: Stability (residual rate of cyclic peptide after alkali treatment)” value is given as “A (The residual rate of the cyclic peptide is 70% or more.)”. The Kd at human integrin αvβ5 (setting [3]) fell in the range of 50 to 100 nM.

Turning to `CC[C@H](C)[C@@H]1NC(=O)[C@@H](NC(=O)[C@H](CCCCN)NC(=O)[C@H](CCCCN)NC(=O)[C@@H](N)CCCCN)CCSCC(=O)NCC[C@@H](C(=O)N[C@@H](C)C(=O)O)NC(=O)[C@H](C)NC(=O)[C@H](CCCNC(=N)N)NC(=O)[C@H](Cc2ccccc2)NC(=O)[C@H](CC(N)=O)NC(=O)[C@H](CC(=O)O)NC(=O)CNC(=O)[C@H](CCCNC(=N)N)NC(=O)[C@@H]2CCCN2C1=O` [Cyclic peptide 16, KKK-(Hcy)-IPRGDNFRA(Dab(acetyl))A] (H-KKK[hCys]IPRGDNFRA[Dab]A-OH; linker 4-14 via X2), the “Performance evaluation: Stability (residual rate of cyclic peptide after alkali treatment)” value in series [1] is given as “A (The residual rate of the cyclic peptide is 70% or more.)”. Besides, the Kd on human integrin αvβ5 (setting [3]) is 50 to 100 nM.

For `CC[C@H](C)[C@@H]1NC(=O)[C@@H](NC(=O)[C@H](C)NC(=O)[C@H](CCCCN)NC(=O)[C@H](CCCCN)NC(=O)[C@@H](N)CCCCN)CCSCC(=O)NCC[C@@H](C(=O)N[C@@H](C)C(=O)O)NC(=O)[C@H](C)NC(=O)[C@H](Cc2ccccc2)NC(=O)[C@H]([C@@H](C)O)NC(=O)[C@H](CC(=O)O)NC(=O)CNC(=O)[C@H](CCCNC(=N)N)NC(=O)[C@@H]2CCCN2C1=O` [Cyclic peptide 87, KKKA-(Hcy)-IPRGDTFA(Dab(acetyl))A] (H-KKKA[hCys]IPRGDTFA[Dab]A-OH; linker 5-14 via X2), the “Performance evaluation: Stability (residual rate of cyclic peptide after alkali treatment)” value in series [1] is given as “A (The residual rate of the cyclic peptide is 70% or more.)”. Moreover, the Kd on human integrin αvβ5 (setting [3]) is less than 50 nM.

As for `C[C@@H]1NC(=O)[C@H](Cc2ccccc2)NC(=O)[C@H]([C@@H](C)O)NC(=O)[C@H](CC(=O)O)NC(=O)CNC(=O)[C@H](CCCNC(=N)N)NC(=O)[C@@H]2CCCN2C(=O)[C@H]([C@@H](C)O)NC(=O)[C@@H](NC(=O)[C@H](CCCCN)NC(=O)[C@H](CCCCN)NC(=O)[C@@H](N)CCCCN)CCSCC(=O)NCC[C@@H](C(=O)O)NC1=O` [Cyclic peptide 147, KKK-(Hcy)-TPRGDTFA(Dab(acetyl))] (H-KKK[hCys]TPRGDTFA[Dab]-OH; linker 4-13 via X2), in series [1], the “Stability (molecule stability, residual rate of the cyclic peptide rank)” value was “A (The residual rate of the cyclic peptide is 70% or more.)”. Further, the Kd on human integrin αvβ5 (setting [2]) was less than 50 nM.

Consider `CC(C)C[C@@H]1NC(=O)[C@@H](NC(=O)CNC(=O)[C@H](CCCCN)NC(=O)[C@H](CCCCN)NC(=O)[C@@H](N)CCCCN)CCSCC(=O)NCC[C@@H](C(=O)N[C@@H](C)C(=O)O)NC(=O)[C@H](CCCNC(=N)N)NC(=O)[C@H](Cc2ccccc2)NC(=O)[C@H]([C@@H](C)O)NC(=O)[C@H](CC(=O)O)NC(=O)CNC(=O)[C@H](CCCNC(=N)N)NC(=O)[C@@H]2CCCN2C1=O` [Cyclic peptide 71, KKKG-(Hcy)-LPRGDTFR(Dab(acetyl))A] (H-KKKG[hCys]LPRGDTFR[Dab]A-OH; linker 5-14 via X2), for which the “Performance evaluation: Stability (residual rate of cyclic peptide after alkali treatment)” value in series [1] is on record as “A (The residual rate of the cyclic peptide is 70% or more.)”. The Kd at human integrin αvβ5 (setting [3]) is less than 50 nM.

With `CC[C@H](C)[C@@H]1NC(=O)[C@@H](NC(=O)CNC(=O)[C@H](CCCCN)NC(=O)[C@H](CCCCN)NC(=O)[C@@H](N)CCCCN)CCSCC(=O)NCC[C@@H](C(=O)NCC(=O)O)NC(=O)[C@H](C)NC(=O)[C@H](Cc2ccccc2)NC(=O)[C@H](CO)NC(=O)[C@H](CC(=O)O)NC(=O)CNC(=O)[C@H](CCCNC(=N)N)NC(=O)[C@@H]2CCCN2C1=O` [Cyclic peptide 95, KKKG-(Hcy)-IPRGDSFA(Dab(acetyl))G] (H-KKKG[hCys]IPRGDSFA[Dab]G-OH; linker 5-14 via X2), the “Performance evaluation: Stability (residual rate of cyclic peptide after alkali treatment)” value in series [1] was “A (The residual rate of the cyclic peptide is 70% or more.)”. For the same compound, the Kd on human integrin αvβ5 (setting [3]) is less than 50 nM.

As for `CC[C@H](C)[C@@H]1NC(=O)[C@@H](NC(=O)[C@H](CCCCN)NC(=O)[C@H](CCCCN)NC(=O)[C@@H](N)CCCCN)CNC(=O)CSCC[C@@H](C(=O)O)NC(=O)[C@H](CCCNC(=N)N)NC(=O)[C@H](Cc2ccccc2)NC(=O)[C@H](CC(N)=O)NC(=O)[C@H](CC(=O)O)NC(=O)CNC(=O)[C@H](CCCNC(=N)N)NC(=O)[C@@H]2CCCN2C1=O` [Cyclic peptide 12, KKK(Dap(acetyl))IPRGDNFR-(Hcy)] (H-KKK[Dap]IPRGDNFR[hCys]-OH; linker 4-13 via X1), the “Performance evaluation: Stability (residual rate of cyclic peptide after alkali treatment)” value in series [1] is “B (The residual rate of the cyclic peptide is 50% or more and less than 70%.)”. The Kd at human integrin αvβ5 (setting [3]) fell in the range of 50 to 100 nM.

For the compound `N=C(N)NCCC[C@@H]1NC(=O)[C@H](Cc2ccc(O)cc2)NC(=O)[C@H](CC(N)=O)NC(=O)[C@H](CC(=O)O)NC(=O)CNC(=O)[C@H](CCCNC(=N)N)NC(=O)[C@@H]2CCCN2C(=O)[C@H](CCC(=O)O)NC(=O)[C@@H](NC(=O)[C@H](CCCCN)NC(=O)[C@H](CCCCN)NC(=O)[C@@H](N)CCCCN)CNC(=O)CSCC[C@@H](C(=O)O)NC1=O` [Cyclic peptide 46, KKK(Dap(acetyl))EPRGDNYR-(Hcy)] (H-KKK[Dap]EPRGDNYR[hCys]-OH; linker 4-13 via X1), the “Performance evaluation: Stability (residual rate of cyclic peptide after alkali treatment)” value in series [1] was “B (The residual rate of the cyclic peptide is 50% or more and less than 70%.)”. In addition, the Kd at human integrin αvβ5 (setting [3]) was 50 to 100 nM.

In the case of `CC[C@H](C)[C@@H]1NC(=O)[C@@H](NC(=O)CNC(=O)[C@H](CCCCN)NC(=O)[C@H](CCCCN)NC(=O)[C@@H](N)CCCCN)CCSCC(=O)NCC[C@@H](C(=O)N[C@@H](C)C(=O)O)NC(=O)[C@H](C)NC(=O)[C@H](Cc2ccccc2)NC(=O)[C@H](CO)NC(=O)[C@H](CC(=O)O)NC(=O)CNC(=O)[C@H](CCCNC(=N)N)NC(=O)[C@@H]2CCCN2C1=O` [Cyclic peptide 94, KKKG-(Hcy)-IPRGDSFA(Dab(acetyl))A] (H-KKKG[hCys]IPRGDSFA[Dab]A-OH; linker 5-14 via X2), in series [1], the “Performance evaluation: Stability (residual rate of cyclic peptide after alkali treatment)” value was “A (The residual rate of the cyclic peptide is 70% or more.)”. Also, on human integrin αvβ5 (setting [3]), the Kd was less than 50 nM.

`C[C@H](NC(=O)[C@H](CCCCN)NC(=O)[C@H](CCCCN)NC(=O)[C@@H](N)CCCCN)C(=O)N[C@H]1CNC(=O)CSCC[C@@H](C(=O)N[C@@H](CC(=O)O)C(=O)O)NC(=O)[C@H](CCCNC(=N)N)NC(=O)[C@H](Cc2ccc(O)cc2)NC(=O)[C@H](CC(N)=O)NC(=O)[C@H](CC(=O)O)NC(=O)CNC(=O)[C@H](CCCNC(=N)N)NC(=O)[C@@H]2CCCN2C(=O)[C@H](CCC(=O)O)NC1=O` [Cyclic peptide 48, KKKA(Dap(acetyl))EPRGDNYR-(Hcy)-D] (H-KKKA[Dap]EPRGDNYR[hCys]D-OH; linker 5-14 via X1): the “Performance evaluation: Stability (residual rate of cyclic peptide after alkali treatment)” value in series [1] is “B (The residual rate of the cyclic peptide is 50% or more and less than 70%.)”. Also, the Kd at human integrin αvβ5 (setting [3]) was less than 50 nM.

Take `CC(C)C[C@@H]1NC(=O)[C@@H](NC(=O)CNC(=O)[C@H](CCCCN)NC(=O)[C@H](CCCCN)NC(=O)[C@@H](N)CCCCN)CCSCC(=O)NCC[C@@H](C(=O)N[C@@H](C)C(=O)O)NC(=O)[C@H](CCCNC(=N)N)NC(=O)[C@H](Cc2ccccc2)NC(=O)[C@H](CO)NC(=O)[C@H](CC(=O)O)NC(=O)CNC(=O)[C@H](CCCNC(=N)N)NC(=O)[C@@H]2CCCN2C1=O` [Cyclic peptide 28, KKKG-(Hcy)-LPRGDSFR(Dab(acetyl))A] (H-KKKG[hCys]LPRGDSFR[Dab]A-OH; linker 5-14 via X2): in series [1], the “Performance evaluation: Stability (residual rate of cyclic peptide after alkali treatment)” value was “A (The residual rate of the cyclic peptide is 70% or more.)”. Also, the Kd at human integrin αvβ5 (setting [3]) was 50 to 100 nM.

Consider `CC(C)[C@@H]1NC(=O)[C@@H](NC(=O)CNC(=O)[C@H](CCCCN)NC(=O)[C@H](CCCCN)NC(=O)[C@@H](N)CCCCN)CCSCC(=O)NCC[C@@H](C(=O)N[C@@H](C)C(=O)O)NC(=O)[C@H](C)NC(=O)[C@H](Cc2ccccc2)NC(=O)[C@H]([C@@H](C)O)NC(=O)[C@H](CC(=O)O)NC(=O)CNC(=O)[C@H](CCCNC(=N)N)NC(=O)[C@@H]2CCCN2C1=O` [Cyclic peptide 106, KKKG-(Hcy)-VPRGDTFA(Dab(acetyl))A] (H-KKKG[hCys]VPRGDTFA[Dab]A-OH; linker 5-14 via X2), for which the “Stability (molecule stability, residual rate of the cyclic peptide rank)” value in series [1] was “A (The residual rate of the cyclic peptide is 70% or more.)”. In addition, the Kd on human integrin αvβ5 (setting [2]) was less than 50 nM.
